For 18 molecules, T/C results are on record in PubChem BioAssay AID330 (DTP/NCI, 2004).

Where “and” joins values, the source holds several entries; their conditions need not be identical. Equal entries are not always repeated. Inconclusive results and toxic doses are left out.

This experiment deals with P388 leukemia ip, CD2F1 mice, survival T/C. The experiment in a line: NCI In Vivo Anticancer Drug Screen. Data for tumor model P388 Leukemia (intraperitoneal) in CD2F1 (CDF1) mice. Particulars: endpoint: median survival time, higher = longer survival. A digest of the protocol:
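Mice carrying the transplanted tumor received test compound or vehicle. Survival was recorded in each group, and the value is the treated-group measurement divided by that of the vehicle-treated control group.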

Where [1] appears, read: dose: 25.0 mg/kg/injection, schedule: Q01DX009 (ip), vehicle: saline with Tween-80.
The mark [2] stands for this setting: dose: 100.0 mg/kg/injection, schedule: Q04DX003 (ip), vehicle: saline.
The mark [3] stands for this setting: dose: 200.0 mg/kg/injection, schedule: Q04DX003 (ip), vehicle: saline.
[4] abbreviates: dose: 400.0 mg/kg/injection, schedule: Q04DX003 (ip), vehicle: saline.
Where [5] appears, read: dose: 50.0 mg/kg/injection, schedule: Q01DX005 (ip), vehicle: saline with Tween-80.
Setting [6] is: dose: 6.25 mg/kg/injection, schedule: Q01DX009 (ip), vehicle: saline with Tween-80.
Where [7] appears, read: dose: 12.5 mg/kg/injection, schedule: Q01DX009 (ip), vehicle: saline with Tween-80.
Where [8] appears, read: dose: 1.56 mg/kg/injection, schedule: Q01DX009 (ip), vehicle: saline with Tween-80.

In the case of `O=c1[nH]cc(S)c(=O)[nH]1`, the T/C was 105 % of control under setting [1]; 100 % of control (dose: 50.0 mg/kg/injection, schedule: Q01DX009 (ip), vehicle: saline with Tween-80); 100 % of control (dose: 50.0 mg/kg/injection, schedule: Q04DX003 (ip), vehicle: saline with Tween-80); 110 % of control (dose: 100.0 mg/kg/injection, schedule: Q01DX009 (ip), vehicle: saline with Tween-80); 100 % of control (dose: 100.0 mg/kg/injection, schedule: Q04DX003 (ip), vehicle: saline with Tween-80).

With `COC(=O)C(NC(=O)C(NC(=O)c1c2nc3c(C(=O)NC(C(=O)NC(C(=O)OC)C(C)C)C(C)OC(C)=O)ccc(C)c3oc-2c(C)c(=O)c1N)C(C)OC(C)=O)C(C)C` (stereo not drawn), the T/C is, setting by setting: (dose: 0.05 mg/kg/injection, schedule: Q01DX009 (ip), vehicle: water) 107 % of control; (dose: 0.1 mg/kg/injection, schedule: Q01DX009 (ip), vehicle: water) 107 % of control; (dose: 0.2 mg/kg/injection, schedule: Q01DX009 (ip), vehicle: water) 100 % of control; (dose: 0.4 mg/kg/injection, schedule: Q01DX009 (ip), vehicle: water) 97 % of control; (dose: 0.8 mg/kg/injection, schedule: Q01DX009 (ip), vehicle: water) 100 % of control; (dose: 1.6 mg/kg/injection, schedule: Q01DX009 (ip), vehicle: water) 100 % of control and 88 % of control. Moreover, the T/C is 97 % of control (dose: 3.2 mg/kg/injection, schedule: Q01DX009 (ip), vehicle: water); 97 % of control (dose: 6.4 mg/kg/injection, schedule: Q01DX009 (ip), vehicle: water); 92 % of control (dose: 12.8 mg/kg/injection, schedule: Q01DX009 (ip), vehicle: water).

As to `CC(=O)Nc1c(C)cccc1C`, the T/C runs as follows: (dose: 25.0 mg/kg/injection, schedule: Q01DX009 (ip), vehicle: Klucel (hydroxypropylcellulose) (HPC)) 93 % of control; (dose: 50.0 mg/kg/injection, schedule: Q01DX009 (ip), vehicle: Klucel (hydroxypropylcellulose) (HPC)) 100 % of control; (dose: 100.0 mg/kg/injection, schedule: Q01DX009 (ip), vehicle: Klucel (hydroxypropylcellulose) (HPC)) 97 % of control; (dose: 200.0 mg/kg/injection, schedule: Q01DX009 (ip), vehicle: Klucel (hydroxypropylcellulose) (HPC)) 103 % of control.

As to `C1=Nc2ccccc2N=Cc2ccccc2NCCNc2ccccc21`, the T/C by setting is: (dose: 6.25 mg/kg/injection, schedule: Q01DX009 (ip), vehicle: saline) 98 % of control; (dose: 12.5 mg/kg/injection, schedule: Q01DX009 (ip), vehicle: saline) 101 % of control; (dose: 25.0 mg/kg/injection, schedule: Q01DX009 (ip), vehicle: saline) 92 % of control.

With `COc1ccc(C(=O)NC(C(N)=O)C(N)=O)cc1`, the T/C was 99 % of control under setting [2], 99 % of control under setting [3] and 97 % of control under setting [4].

`Cc1cc(=O)oc2cc(NC(=O)C(CCCN=C(N)N)NC(=O)OCc3ccccc3)ccc12` (stereo not drawn): the T/C reads like this: under setting [5], 97 % of control; (dose: 100.0 mg/kg/injection, schedule: Q01DX005 (ip), vehicle: saline with Tween-80) 98 % of control; (dose: 200.0 mg/kg/injection, schedule: Q01DX005 (ip), vehicle: saline with Tween-80) 94 % of control.

Regarding `COC(=O)C1(C)CCCC2(C)C3CCC4CC3(C=C4CO)CCC12` (stereo not drawn), the T/C (dose: 10.0 mg/kg/injection, schedule: Q01DX005 (ip), vehicle: Klucel (hydroxypropylcellulose) (HPC)) is 108 % of control; the T/C (dose: 20.0 mg/kg/injection, schedule: Q01DX005 (ip), vehicle: Klucel (hydroxypropylcellulose) (HPC)) is 100 % of control; the T/C (dose: 40.0 mg/kg/injection, schedule: Q01DX005 (ip), vehicle: Klucel (hydroxypropylcellulose) (HPC)) was 100 % of control; the T/C (dose: 80.0 mg/kg/injection, schedule: Q01DX005 (ip), vehicle: Klucel (hydroxypropylcellulose) (HPC)) was 93 % of control.

With `Cc1ccc(S(=O)(=O)OCC(O)C(O)COS(=O)(=O)c2ccc(C)cc2)cc1` (stereo not drawn), the T/C by setting is: (dose: 50.0 mg/kg/injection, schedule: Q01DX009 (ip), vehicle: saline) 97 % of control; (dose: 100.0 mg/kg/injection, schedule: Q01DX009 (ip), vehicle: saline) 102 % of control and 113 % of control; (dose: 200.0 mg/kg/injection, schedule: Q01DX009 (ip), vehicle: saline) 101 % of control and 95 % of control.

`O=C(CN1CCC(O)(c2ccc(F)cc2)CC1)N1CCN(C/C=C/c2ccccc2)CC1`: the T/C is, setting by setting: (dose: 60.0 mg/kg/injection, schedule: Q01DX005 (ip), vehicle: Klucel (hydroxypropylcellulose) (HPC)) 96 % of control; (dose: 120.0 mg/kg/injection, schedule: Q01DX005 (ip), vehicle: Klucel (hydroxypropylcellulose) (HPC)) 95 % of control; (dose: 240.0 mg/kg/injection, schedule: Q01DX005 (ip), vehicle: Klucel (hydroxypropylcellulose) (HPC)) 95 % of control.

Regarding `Cc1c([N+](=O)[O-])cc(Br)c2ccccc12`, the T/C by setting is: (dose: 25.0 mg/kg/injection, schedule: Q01DX009 (ip), vehicle: water) 108 % of control; (dose: 50.0 mg/kg/injection, schedule: Q01DX009 (ip), vehicle: water) 94 % of control; (dose: 100.0 mg/kg/injection, schedule: Q01DX009 (ip), vehicle: water) 93 % of control.

Regarding `CCN=c1cc2oc3cc(NCC)c(C)cc3c(-c3ccccc3C(=O)OCC)c-2cc1C`, the T/C was 110 % of control (dose: 0.4 mg/kg/injection, schedule: Q01DX005 (ip), vehicle: saline with Tween-80); 116 % of control (dose: 0.8 mg/kg/injection, schedule: Q01DX005 (ip), vehicle: saline with Tween-80); 119 % of control (dose: 1.6 mg/kg/injection, schedule: Q01DX005 (ip), vehicle: saline with Tween-80).

In the case of `Cc1cc(C)cc(C(=O)NC(=C(NC(=O)c2cc(C)cc(C)c2)c2ccncc2)c2ccncc2)c1` (mixture of isomers), the T/C was 96 % of control (dose: 12.5 mg/kg/injection, schedule: Q01DX005 (ip), vehicle: saline with Tween-80); 90 % of control (dose: 25.0 mg/kg/injection, schedule: Q01DX005 (ip), vehicle: saline with Tween-80); 86 % of control and 90 % of control under setting [5].

`CC1(C)CC(NC(=O)c2cc([N+](=O)[O-])c(S(=O)(=O)O)c([N+](=O)[O-])c2)CC(C)(C)N1O`: the T/C reads like this: (dose: 100.0 mg/kg/injection, schedule: Q04DX002 (ip), vehicle: saline with Tween-80) 110 % of control; (dose: 200.0 mg/kg/injection, schedule: Q04DX002 (ip), vehicle: saline with Tween-80) 100 % of control; (dose: 400.0 mg/kg/injection, schedule: Q04DX002 (ip), vehicle: saline with Tween-80) 107 % of control.

For `O=P1(c2ccccc2)CCCCN1` (stereo not drawn), the T/C was 104 % of control under setting [2], 110 % of control under setting [3] and 110 % of control under setting [4].

For the molecule `CCCCCCCCC1OC1CCCCCCCC(=O)O` (stereo not drawn), the T/C reads like this: (dose: 3.13 mg/kg/injection, schedule: Q01DX009 (ip), vehicle: saline with Tween-80) 112 % of control; under setting [6], 100 % of control; under setting [7], 103 % of control; under setting [1], 95 % of control.

`CSc1nc(NCc2ccc(Cl)cc2)c2[nH]c(C)nc2n1`: the T/C is 98 % of control and 101 % of control (dose: 0.2 mg/kg/injection, schedule: Q01DX009 (ip), vehicle: saline with Tween-80); 101 % of control and 94 % of control (dose: 0.39 mg/kg/injection, schedule: Q01DX009 (ip), vehicle: saline with Tween-80); 106 % of control and 93 % of control (dose: 0.78 mg/kg/injection, schedule: Q01DX009 (ip), vehicle: saline with Tween-80); 99 % of control and 95 % of control under setting [8].

Regarding `COc1cc(Br)c(C(=O)N2CCc3cc([N+](=O)[O-])ccc32)cc1OC`, the T/C is 101 % of control (dose: 25.0 mg/kg/injection, schedule: Q01DX009 (ip), vehicle: other); 93 % of control (dose: 50.0 mg/kg/injection, schedule: Q01DX009 (ip), vehicle: other); 89 % of control (dose: 100.0 mg/kg/injection, schedule: Q01DX009 (ip), vehicle: other); 87 % of control (dose: 200.0 mg/kg/injection, schedule: Q01DX009 (ip), vehicle: other).

In the case of `NC(CCC(=O)O)C(=O)Nc1ccc(N(CCCl)CCCl)cc1` (stereo not drawn), the T/C under setting [8] was 173 % of control; the T/C (dose: 3.12 mg/kg/injection, schedule: Q01DX009 (ip), vehicle: saline with Tween-80) is 175 % of control; the T/C under setting [6] was 230 % of control; the T/C under setting [7] was 92 % of control.
